Laboratory results taken from US20140011867A1, “EFFECT OF BORRELIDIN FOR CONTROLLING SOYBEAN PHYTOPHTHORA ROOT ROT” (ZHEJIANG HISUN PHARMACEUTICAL CO., LTD., priority 2011, published 2014).
≈ marks a conversion by molar mass, not a printed value. Like-named read-outs stand apart in the source and are kept apart here.

Tested on: Phytophthora sajae Kaufmann & Gerdeman
Assay: Mycelial growth inhibition assay (growth rate method)
Format: cell-based
Design: IC50 as fraction of that of metalaxyl: unit not given beside the values
Method: Growth rate method was used in the assays. […] Phytophthora sajae Kaufmann & Gerdeman cultures after 7 days of culture were punched using a sterile punch (Ø0.5cm) and put on standby, and the cultures were later transferred onto […] (CA) plate culture media and placed at a temperature of 27±1° C., and colony diameters were measured after 7 days of culture.

[1] = mycelial growth, CA plate, 27±1° C., colony diameter after 7 days
[2] = mycelial growth inhibition assay

Row | Compound | IC50 (Phytophthora, 168 h, mycelial growth, CA plate, 27±1° C., colony diameter after 7 days, read-out: IC50) | IC95 [1] | IC50 as fraction of that of metalaxyl [2] | IC95 as fraction of that of metalaxyl [2] | IC50 (mycelial growth inhibition assay, unit inferred) | IC95 (mycelial growth inhibition assay, unit not given)
1 | COCC(=O)N(c1c(C)cccc1C)C(C)C(=O)OC (stereo not shown) [Metalaxyl, reference compound] | 0.35 µg/mL (≈ 1.25 µM) | 6.85 µg/mL (≈ 24.5 µM) | – | – | – | –
2 | Borrelidin | – | 0.026 µg/mL | 1/62 | 1/263 | 0.0056 µg/mL | 0.026
